The test system of one data set is ATH-8 cell line. As to the kind of experiment: tested for cytotoxicity of HIV-1 replication in ATH-8 cells. The data set is classed as functional, Homo sapiens.
For the next data set, the system named is liver esterase. Description: Half-life catalyzed by Pig Liver Esterase. The data set is classed as ADME, Sus scrofa.
Data set [1] deals with Human immunodeficiency virus 1. As to the kind of experiment: tested for its anti-HIV activity.

Some results are limits rather than exact numbers.

In the data set with ATH-8 cell line, `COC(=O)C(C)NP(=O)(OC/C=C/Cn1cnc2c(N)ncnc21)Oc1ccccc1` (configuration not stated) displayed a Cytotoxicity greater than 10 µM. Besides, in the data set with liver esterase, the half-life was 57.1 h.

Molecule `COC(=O)C(C)NP(=O)(OC/C=C\Cn1cnc2c(O)ncnc21)Oc1ccccc1` (configuration not stated) gave a half-life in the data set on liver esterase of 58.3 h. The molecule `COC(=O)C(C)NP(=O)(OC/C=C\Cn1cnc2c(N)ncnc21)Oc1ccccc1` (configuration not stated) showed a half-life in the data set on liver esterase of 43.5 h. In the data set with liver esterase, `COC(=O)C(C)NP(=O)(OCC=C=Cn1cnc2c(O)ncnc21)Oc1ccccc1` (configuration not stated) showed a half-life of 8.5 h. Compared with the last molecule, the half-life is about 5.1-fold lower. With `COC(=O)C(C)NP(=O)(OCC=C=Cn1cnc2c(N)ncnc21)Oc1ccccc1` (configuration not stated), the half-life in the data set on liver esterase is 7.3 h. This half-life and that of the molecule before are within 1.5-fold of each other.

As for `Nc1ncnc2c1ncn2C/C=C/CCOCP(=O)(O)O`, in data set [1], a half-maximal effect (EC50) was put at 9 µM.

As a reminder, the half-life is the time in which the quantity being followed falls by half. The low end stands for fast loss, the high end for slow loss. A word on the EC50: it is the concentration needed to bring the measured effect to its halfway point.

Values taken from ChEMBL document CHEMBL1130087, “Phosphodiester amidates of unsaturated nucleoside analogues: synthesis and anti-HIV activity” (J Med Chem, 1997).
